The text below walks through data of publication PMC11208427, “Magnesium enhances aurintricarboxylic acid’s inhibitory action on the plasma membrane Ca^2+-ATPase” (Scientific Reports, 2024).

Each structure is given as a SMILES string.

The experiment addresses T1, plasma membrane Ca2+-ATPase (PMCA), 90% PMCA4b (Homo sapiens, UniProt P23634).
T1 construct: gene ATP2B4
Put plainly: fluorescence of ATA bound to purified PMCA and quenching of intrinsic Trp fluorescence; also Ca2+-ATPase inhibition (Ki […]). Format: binding.

T1 sequence (P23634 1-1205 isoform P23634-6): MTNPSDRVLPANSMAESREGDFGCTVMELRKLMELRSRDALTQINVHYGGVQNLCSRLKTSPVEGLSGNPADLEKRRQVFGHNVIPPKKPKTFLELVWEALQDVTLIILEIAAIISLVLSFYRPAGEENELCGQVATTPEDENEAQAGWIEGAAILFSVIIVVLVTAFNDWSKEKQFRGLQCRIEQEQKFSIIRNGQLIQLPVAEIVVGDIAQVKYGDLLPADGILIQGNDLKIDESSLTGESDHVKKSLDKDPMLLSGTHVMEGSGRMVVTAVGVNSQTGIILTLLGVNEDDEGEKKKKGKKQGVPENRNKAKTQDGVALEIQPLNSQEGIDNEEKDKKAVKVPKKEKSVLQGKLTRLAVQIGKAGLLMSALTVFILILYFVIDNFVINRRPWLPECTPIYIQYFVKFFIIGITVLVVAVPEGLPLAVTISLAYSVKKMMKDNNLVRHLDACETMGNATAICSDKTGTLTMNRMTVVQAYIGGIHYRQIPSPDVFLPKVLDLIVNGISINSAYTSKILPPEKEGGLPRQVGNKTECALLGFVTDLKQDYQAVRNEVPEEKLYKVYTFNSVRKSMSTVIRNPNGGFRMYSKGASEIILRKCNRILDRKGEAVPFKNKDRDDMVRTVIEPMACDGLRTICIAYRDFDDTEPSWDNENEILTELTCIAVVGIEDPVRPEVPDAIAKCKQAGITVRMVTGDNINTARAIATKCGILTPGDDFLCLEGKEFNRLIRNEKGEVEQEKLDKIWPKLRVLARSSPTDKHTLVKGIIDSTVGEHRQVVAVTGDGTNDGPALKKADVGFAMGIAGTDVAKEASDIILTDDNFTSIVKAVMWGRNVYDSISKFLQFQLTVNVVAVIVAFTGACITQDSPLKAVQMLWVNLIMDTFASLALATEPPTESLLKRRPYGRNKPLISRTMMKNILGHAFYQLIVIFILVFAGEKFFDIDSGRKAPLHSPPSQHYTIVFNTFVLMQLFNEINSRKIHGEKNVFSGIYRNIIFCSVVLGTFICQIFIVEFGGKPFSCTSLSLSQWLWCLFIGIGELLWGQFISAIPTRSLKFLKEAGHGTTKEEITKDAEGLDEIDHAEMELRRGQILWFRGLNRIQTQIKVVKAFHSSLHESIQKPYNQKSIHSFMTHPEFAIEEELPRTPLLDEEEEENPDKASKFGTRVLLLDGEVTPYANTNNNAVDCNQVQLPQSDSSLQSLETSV

Regarding `O=C(O)C1=CC(=C(c2ccc(O)c(C(=O)O)c2)c2ccc(O)c(C(=O)O)c2)C=CC1=O` [ATA, aurintricarboxylic acid], the affinity, expressed as Kd, was 160 nM.
